In US20030092695A1, “Metal salts of 3-methyl-chromane or thiochromane derivatives” (priority 1999, published 2003):
Converted amounts (≈) assume the structure as drawn.

Legend:
[1] = tested on: increase in uterus weight by stimulus with estradiol; assay: Anti-estrogenic activity via oral administration (inhibition of estradiol-stimulated uterus weight increase); format: in vivo; conditions: ovariectomized ICR mice, 17β-estradiol-benzoate 0.1 μg/day s.c. for 3 days, 10 mg/kg p.o., once a day, in 5% arabic gum
Experimental: Oral anti-estrogenic activity in vivo of the test compound was determined according to the method described hereinafter.
In this experiment, the test compound or the control compound was suspended in 5% arabic gum solution and orally administered for 3 days, once a day. After 24 hours from the last administration, the test animal was sacrificed and uterus was removed and weighed.

[2] = Solubility test in FaSSIF or water, shaken at 37° C., filtrate measured by HPLC
Experimental: The degree of improvement in solubility was determined by measuring the solubility of the test compound as follows.
To 1 mg of each compound was added 2 ml of FaSSIF (artificial intestinal juice, bile) or water, which was then shaken at 37° C. After 1, 2 and 20 hours, 200 μm of sample was taken and filtered. The concentration of the filtrate was measured by HPLC and the results are described in the following Table 2.

[3] = FaSSIF, 37 °C, thermodynamic from solid

Row | solubility at 1 h [2, 3] [µg/mL] | solubility at 2 h [2, 3] [µg/mL] | solubility at 20 h [2, 3] [µg/mL] | Solubility in water (in words) ([2]; water as the solvent) | SMILES | Inhibition (%) of the increase in uterus weight by estradiol [1] [%]
1 |  |  |  |  | C[C@@]1(c2ccc(O)cc2)CSc2cc(O)ccc2[C@@H]1CCCCCCCCC(CCCC(F)(F)C(F)(F)F)C(=O)[O-].[Na+] (mixture of isomers) [Example 1, Sodium (3′RS,4′RS)-10-[7-hydroxy-3-(4-hydroxyphenyl)-3-methylthiochroman-4-yl]-2-(4,4,5,5,5-pentafluoropentyl)decanoate] | 74
2 |  |  |  |  | CC1(c2ccc(O)cc2)CSc2cc(O)ccc2C1CCCCCCCCC(CCCC(F)(F)C(F)(F)F)C(=O)O (stereo not drawn) [(3′RS,4′RS)-10-[7-Hydroxy-3-(4-hydroxyphenyl)-3-methylthiochroman-4-yl]-2-(4,4,5,5,5-pentafluoropentyl)decanoic Acid] | 79
3 | 0.365 (≈ 0.602 µM) | 0.474 (≈ 0.781 µM) | 1.7 (≈ 2.8 µM) | can hardly be solved in water | C[C@]12CC[C@@H]3c4ccc(O)cc4C[C@@H](CCCCCCCCC[S+]([O-])CCCC(F)(F)C(F)(F)F)[C@H]3[C@@H]1CC[C@@H]2O (stereo partly shown) [ICI182,780] | 69
